13 compounds from patent publication US10988474B2, “Compounds acting at multiple prostaglandin receptors giving a general anti-inflammatory response” (ALLERGAN, INC., priority 2011, dated 2021) can be followed below.

Common to all, as to type: cell-based
Test [1] deals with T1, human prostanoid DP1 receptor (Homo sapiens, UniProt Q13258).
T1 construct: expressed in transfected cells
T1 sequence (Q13258 1-359): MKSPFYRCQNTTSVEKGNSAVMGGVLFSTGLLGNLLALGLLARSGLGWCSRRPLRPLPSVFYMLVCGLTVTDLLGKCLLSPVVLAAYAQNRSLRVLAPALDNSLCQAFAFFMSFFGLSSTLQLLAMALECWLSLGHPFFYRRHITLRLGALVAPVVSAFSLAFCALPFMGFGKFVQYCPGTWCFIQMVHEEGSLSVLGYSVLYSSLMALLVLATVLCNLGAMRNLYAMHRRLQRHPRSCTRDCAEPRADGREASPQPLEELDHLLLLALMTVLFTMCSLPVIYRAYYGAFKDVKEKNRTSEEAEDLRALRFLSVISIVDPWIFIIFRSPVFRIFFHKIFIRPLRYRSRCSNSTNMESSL
The test is described as follows: FLIPR Ca2+ signaling PG antagonist assay, DP1 stable cell line. The following applies: HEK-293 EBNA cells, human recombinant DP1 with chimeric Gqs; standard agonist BW 245C; read-out: DP (Kb, PG antagonist activity). An outline of the steps: (§1)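 Stable HEK-293 EBNA lines (DP1 with chimeric Gqs, EP3 with Gqi, EP1 and FP without exogenous G protein) were Fluo-4AM-loaded and pretreated 4.5 min at 37 °C with compound (0.1–30 μM). Agonist (BW 245C for DP1, PGE2 for EP1/EP3, 17-phenyl-PGF2α for FP) was then added at 10^−11–10^−5 M. Peak Ca2+ fluorescence was taken relative to agonist at 10^−6 M.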

Test [2] concerns the target T2, human prostanoid TP receptor (Homo sapiens, UniProt P21731).
T2 construct: expressed in transfected cells
T2 sequence (P21731 1-343): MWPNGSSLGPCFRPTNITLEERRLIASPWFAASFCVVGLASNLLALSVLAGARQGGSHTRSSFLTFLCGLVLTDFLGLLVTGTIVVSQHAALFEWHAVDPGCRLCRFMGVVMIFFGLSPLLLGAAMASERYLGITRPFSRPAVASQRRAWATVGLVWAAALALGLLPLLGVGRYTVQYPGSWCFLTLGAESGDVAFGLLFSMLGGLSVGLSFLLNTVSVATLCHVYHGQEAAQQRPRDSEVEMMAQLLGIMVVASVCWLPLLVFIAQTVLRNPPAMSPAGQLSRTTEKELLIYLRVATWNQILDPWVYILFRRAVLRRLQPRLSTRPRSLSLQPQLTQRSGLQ
As to the kind of experiment: FLIPR Ca2+ signaling PG antagonist assay, TP stable cell line. The following applies: HEK-293 EBNA cells, human recombinant TP, no exogenous G-protein; standard agonist U-46619. An outline of the steps: (§2)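 HEK-293 EBNA stable lines; EP2 co-expressed with chimeric Gqs, EP1/IP/TP with no exogenous G protein. Fluo-4AM-loaded cells pretreated 4.5 min at 37 °C with compound (0.1–30 μM; TP 0.067–1 μM), then standard agonist (PGE2, cicaprost, U-46619) 10^−11–10^−5 M (TP 10^−12–10^−6 M); peak fluorescence read 3.5 min, nonlinear regression.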

For test [3], the target named is T3, human prostanoid EP2 receptor (Homo sapiens, UniProt P43116).
T3 construct: expressed in transfected cells
T3 sequence (P43116 whole entry): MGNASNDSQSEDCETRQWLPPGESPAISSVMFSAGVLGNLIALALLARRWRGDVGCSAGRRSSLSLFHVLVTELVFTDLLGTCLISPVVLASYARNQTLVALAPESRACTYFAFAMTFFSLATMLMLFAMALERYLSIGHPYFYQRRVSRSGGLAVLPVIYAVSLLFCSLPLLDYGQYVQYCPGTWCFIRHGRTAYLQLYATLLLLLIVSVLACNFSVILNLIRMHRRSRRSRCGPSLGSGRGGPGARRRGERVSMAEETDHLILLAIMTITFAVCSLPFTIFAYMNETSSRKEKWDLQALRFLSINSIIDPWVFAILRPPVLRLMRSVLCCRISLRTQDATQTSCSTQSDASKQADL
As to the kind of experiment: FLIPR Ca2+ signaling PG antagonist assay, EP2 stable cell line. The following applies: HEK-293 EBNA cells, human recombinant EP2 with chimeric Gqs; standard agonist PGE2. The protocol: The above compounds were tested for PG antagonist activity as follows using human recombinant prostanoid receptor (DP1, EP1-4, FP, IP and TP) stable cell lines: In order to measure the response of Gs and Gi coupled prostanoid receptors as a Ca^2+ signal, chimeric G protein cDNAs were used. Stable cell lines over-expressing human prostanoid DP1, EP1-4, FP, IP, and TP receptors were established as follows:
Briefly, human prostanoid DP1, EP2, and EP4 receptor cDNAs were co-transfected with chimeric Gqs cDNA containing a haemagglutanin (HA) epitope; human prostanoid EP3 receptors were co-transfected with chimeric Gqi-HA; human EP1, FP, IP, and TP receptor cDNAs were expressed with no exogenous G-proteins. Gqs and Gqi chimeric cDNAs (Molecular Devices, Sunnyvale, Calif., U.S.A.), as well as cDNAs of prostanoid receptors, were cloned into a pCEP4 vector with a hygromycin B selection marker. Transfection into HEK-293 EBNA (Epstein-Barr virus nuclear antigen) cells was achieved by the FuGENE 6 transfection Reagent (Roche Applied Science, Indianapolis, Ind., USA). Stable transfectants were selected according to hygromycin resistance. Because Gqs and Gqi contained an HA epitope, G-protein expression was detected by Western blotting analysis using anti-mouse HA monoclonal antibody and horseradish peroxidase (HRP)-conjugated secondary antibody, while functional expression of prostanoid receptors was detected by FLIPR screening (Matias et al., 2004). These stable cell lines were validated using previously published antagonists at 10 μM against serial dilutions of standard agonists by FLIPR functional assays for Ca^2+ Signaling (as described below).
Ca^2+ signaling studies were performed using a FLIPR TETRA system (Molecular Devices, Sunnyvale, Calif., USA) in the 384-format. This is a high-throughput instrument for cell-based assays to monitor Ca^2+ signaling associated with GPCRs and ion channels. Cells were seeded at a density of 5×10^4 cells/well in BioCoat poly-D-lysine coated, black wall, clear bottom 384-well plates (BD Biosciences, Franklin lakes, NJ, USA) and allowed to attach overnight in an incubator at 37° C. The cells were then washed twice with HBSS-HEPES buffer (Hanks' balanced salt solution without bicarbonate and phenol red, 20 mM HEPES, pH 7.4) using an ELx405 Select CW Microplate Washer (BioTek, Winooski, Vt., USA). After 60 min of dye-loading in the dark using the Ca^2+-sensitive dye Fluo-4AM (Invitrogen, Carlsbad, Calif., USA), at a final concentration of 2×10^−6M, the plates were washed 4 times with HBSS-HEPES buffer to remove excess dye and leaving 50 μl of buffer in each well. The plates were then placed in the FLIPR TETRA instrument and allowed to equilibrate at 37° C. Compounds were added in a 25 μl volume to each well to give final concentrations of 0.1 μM, 0.3 μM, 1 μM, 3 μM, 10 μM, and 30 μM; or 0.067 μM, 0.1 μM, 0.2 μM, 0.3 μM, 0.67 μM, and 1 μM for cells over-expressing TP receptors. After 4.5 minutes, a 7-point serial dilution of the standard agonist for the corresponding receptor, in a 25 μl volume was injected at the final concentrations from 10^−11M to 10^−5M in 10-fold serial dilution increments for cells expressing human recombinant DP1, EP1, EP2, EP3, EP4, FP, and IP receptors. The dose range for the standard agonist for human recombinant TP receptors was from 10^−12M to 10^−6M. HBSS-HEPES buffer was used as the negative control for the standard agonists. Cells were excited with LED (light emitting diode) excitation at 470-495 nm and emission was measured through an emission filter at 515-575 nm. Assay plates were read for 3.5 minutes using the FLIPR^TETRA. The peak increase in fluorescence intensity was recorded for each well. On each plate, negative controls, dose response of positive controls, and co-treatments of antagonist-agonist for each dose were in triplicates. Standard agonists were as follows: DP=BW 245C, EP1-EP4=PGE2, FP=17-phenyl-PGF2α, IP=Cicaprost, and TP=U-46619. […]

For test [4], the target named is T4, human prostanoid FP receptor (Homo sapiens, UniProt P43088).
T4 construct: expressed in transfected cells
T4 sequence (P43088 whole entry): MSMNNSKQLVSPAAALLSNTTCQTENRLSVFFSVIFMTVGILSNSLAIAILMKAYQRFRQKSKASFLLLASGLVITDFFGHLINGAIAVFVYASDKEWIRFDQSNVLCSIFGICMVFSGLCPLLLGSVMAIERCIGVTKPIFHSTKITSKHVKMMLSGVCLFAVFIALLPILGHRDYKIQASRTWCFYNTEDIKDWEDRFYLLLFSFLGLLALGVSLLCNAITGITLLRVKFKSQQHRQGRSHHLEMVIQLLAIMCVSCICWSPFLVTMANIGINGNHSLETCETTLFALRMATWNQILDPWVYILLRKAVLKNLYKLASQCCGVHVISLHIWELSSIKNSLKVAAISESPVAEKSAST
As to the kind of experiment: FLIPR Ca2+ signaling PG antagonist assay, FP stable cell line. The settings on record: HEK-293 EBNA cells, human recombinant FP, no exogenous G-protein; standard agonist 17-phenyl-PGF2α. An outline of the steps:
as §1

Test [5] deals with T5, human prostanoid IP receptor (Homo sapiens, UniProt P43119).
T5 construct: expressed in transfected cells
T5 sequence (P43119 whole entry): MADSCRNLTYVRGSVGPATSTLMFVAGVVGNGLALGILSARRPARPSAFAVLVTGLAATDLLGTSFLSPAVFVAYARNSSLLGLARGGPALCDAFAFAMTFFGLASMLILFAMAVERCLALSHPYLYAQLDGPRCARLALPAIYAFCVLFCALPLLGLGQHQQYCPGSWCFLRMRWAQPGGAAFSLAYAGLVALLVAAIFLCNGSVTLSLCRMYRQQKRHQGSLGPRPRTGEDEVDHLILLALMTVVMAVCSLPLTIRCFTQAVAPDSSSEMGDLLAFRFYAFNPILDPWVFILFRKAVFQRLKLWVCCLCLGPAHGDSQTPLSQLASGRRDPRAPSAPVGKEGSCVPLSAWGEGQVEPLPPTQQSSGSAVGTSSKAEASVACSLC
As to the kind of experiment: FLIPR Ca2+ signaling PG antagonist assay, IP stable cell line. The following applies: HEK-293 EBNA cells, human recombinant IP, no exogenous G-protein; standard agonist Cicaprost. An outline of the steps: as §2

In the case of `Cc1cn(Cc2cc(OC(F)(F)F)ccc2OCC(C)C)c2ccc(C(=O)O)cc12` [Example 75, 1-(2-Isobutoxy-5-Trifluoromethoxy-Benzyl)-3-Methyl-1H-Indole-5-Carboxylic Acid], the Kb in test [1] was 1300 nM; in test [2], 300 nM; in test [3] it was 6.4 µM; in test [4], 330 nM; in test [5], 4.4 µM.

As to `O=C(O)c1ccc2c(cnn2Cc2cc(Br)ccc2OCc2ccccc2)c1` [Example 12, 1-(2-Benzyloxy-5-Bromo-Benzyl)-1H-Indazole-5-Carboxylic Acid], the Kb was 1600 nM in test [1]; 44 nM in test [2]; 7.9 µM in test [3]; 120 nM in test [4]; 5 µM in test [5].

Take `CC(C)COc1ccc(OC(F)(F)F)cc1Cn1ccc2cc(C(=O)O)cnc21` [Example 74, 1-(2-Isobutoxy-5-Trifluoromethoxy-Benzyl)-1H-Pyrrolo[2,3-B]Pyridine-5-Carboxylic Acid]: the Kb is 290 nM in test [1]; 20 nM in test [2]; no less than 10 µM in test [3]; 660 nM in test [4]; 1.4 µM in test [5].

As to `O=C(O)c1cccc2nn(Cc3cc(Cl)ccc3OCC3CC3)cc12` [Example 35, 2-(5-Chloro-2-Cyclopropylmethoxy-Benzyl)-2H-Indazole-4-Carboxylic Acid], the Kb is 1900 nM in test [1]; 1200 nM in test [2]; no less than 10 µM in test [3]; 4300 nM in test [4]; no less than 10 µM in test [5].

`CCC(CC)COc1ccc(Cl)cc1Cn1nc(C)c2cc(C(=O)O)cnc21` [Example 60, 1-[5-Chloro-2-(2-Ethyl-Butoxy)-Benzyl]-3-Methyl-1H-Pyrazolo[3,4-B]Pyridine-5-Carboxylic Acid]: the Kb was determined as 580 nM in test [1]; 410 nM in test [2]; 7.5 µM in test [3]; 2500 nM in test [4]; 0.63 µM in test [5].

As to `CC(C)COc1ccc(O)cc1Cn1ncc2cc(C(=O)O)ccc21` [Example 54], the Kb in test [1] was 9900 nM; in test [2] it was 640 nM; in test [3] it was no less than 10 µM; in test [4], 1100 nM; in test [5], no less than 10 µM.

In the case of `CCc1nn(Cc2cc(Br)ccc2OCC(CC)CC)c2ccc(C(=O)O)cc12` [Example 65, 1-[5-Bromo-2-(2-Ethyl-Butoxy)-Benzyl]-3-Ethyl-1H-Indazole-5-Carboxylic Acid], the Kb in test [1] was 1500 nM; in test [2], 52 nM; in test [3] it was 6.5 µM; in test [5], 0.88 µM. Further, the “FP (Kb, PG antagonist activity)” value in test [4] was “PAg”.

With `O=C(O)c1ccc2c(cnn2Cc2cc(C(F)(F)F)ccc2OCC2CCCC2)c1` [Example 33, 1-(2-Cyclopentylmethoxy-5-Trifluoromethyl-Benzyl)-1H-Indazole-5-Carboxylic Acid], the Kb in test [1] is 350 nM; in test [2] it was 1 nM; in test [3], 2.6 µM; in test [4], 70 nM; in test [5], 0.4 µM.

For the compound `CCC(CC)COc1ccc(Br)cc1Cn1c(C)cc2cc(C(=O)O)ccc21` [Example 68, 1-[5-Bromo-2-(2-Ethyl-Butoxy)-Benzyl]-2-Methyl-1H-Indole-5-Carboxylic Acid], the Kb in test [1] is no less than 10000 nM; in test [2] it was no less than 10000 nM; in test [3], no less than 10 µM; in test [4] it was no less than 10000 nM; in test [5], 6.6 µM.

Consider `CCC(CC)COc1ccc(OC(F)(F)F)cc1Cn1cc(C)c2cc(C(=O)O)ccc21` [Example 77, 1-[2-(2-Ethyl-Butoxy)-5-Trifluoromethoxy-Benzyl]-3-Methyl-1H-Indole-5-Carboxylic Acid], for which the Kb in test [1] was 3600 nM; in test [2] it was 1100 nM; in test [3] it was 9.2 µM; in test [4], 9600 nM; in test [5], no less than 10 µM.

Regarding `O=C(O)c1ccc2c(cnn2Cc2cc(Br)ccc2OCC2CC2)c1` [Example 15, 1-(5-Bromo-2-Cyclopropylmethoxy-Benzyl)-1H-Indazole-5-Carboxylic Acid], the Kb in test [1] was found to be 1800 nM; in test [2], 20 nM; in test [3], 3.3 µM; in test [4], 130 nM; in test [5], 1.8 µM.

Take `CC(C)COc1ccc(Br)cc1Cn1ccc2cc(C(=O)O)ccc21` [Example 67, 1-(5-Bromo-2-Isobutoxy-Benzyl)-1H-Indole-5-Carboxylic Acid]: the Kb was no less than 10000 nM in test [1]; 160 nM in test [2]; no less than 10 µM in test [3]; 100 nM in test [4]; no less than 10 µM in test [5].

With `CC(C)COc1ccc(Br)cc1Cn1ccc2nc(C(=O)O)ccc21` [Example 73, 1-(5-Bromo-2-Isobutoxy-Benzyl)-1H-Pyrrolo[3,2-B]Pyridine-5-Carboxylic Acid], the Kb in test [1] was no less than 10000 nM; in test [2], 8 nM; in test [3] it was no less than 10 µM; in test [4] it was 430 nM; in test [5] it was 9 µM.

As a reminder, the Kb is the equilibrium dissociation constant of an antagonist, usually derived from a functional assay.
